# According to patent US11045519B2, “Arginine-rich polypeptide compositions and methods of using same” (UNM Rainforest Innovations, priority 2017, dated 2021):
# Where a SMILES comes first, the peptide text is derived from it. Where no end group is shown, it is not given here. The star is where a group is joined. Decanoyl = CCCCCCCCCC(=O)*; CH2Cl = ClC*
# What was measured:
# [1] = target: T1, recombinant His-furin (Homo sapiens, UniProt P09958); assay: Furin cleavage of HPV16 L2 capsid protein (immunoblot); assay type: biochemical; conditions: 30 μM, 3 nM His-furin, 2 h 37° C.
# T1 construct: His
# T1 sequence (P09958 108-794): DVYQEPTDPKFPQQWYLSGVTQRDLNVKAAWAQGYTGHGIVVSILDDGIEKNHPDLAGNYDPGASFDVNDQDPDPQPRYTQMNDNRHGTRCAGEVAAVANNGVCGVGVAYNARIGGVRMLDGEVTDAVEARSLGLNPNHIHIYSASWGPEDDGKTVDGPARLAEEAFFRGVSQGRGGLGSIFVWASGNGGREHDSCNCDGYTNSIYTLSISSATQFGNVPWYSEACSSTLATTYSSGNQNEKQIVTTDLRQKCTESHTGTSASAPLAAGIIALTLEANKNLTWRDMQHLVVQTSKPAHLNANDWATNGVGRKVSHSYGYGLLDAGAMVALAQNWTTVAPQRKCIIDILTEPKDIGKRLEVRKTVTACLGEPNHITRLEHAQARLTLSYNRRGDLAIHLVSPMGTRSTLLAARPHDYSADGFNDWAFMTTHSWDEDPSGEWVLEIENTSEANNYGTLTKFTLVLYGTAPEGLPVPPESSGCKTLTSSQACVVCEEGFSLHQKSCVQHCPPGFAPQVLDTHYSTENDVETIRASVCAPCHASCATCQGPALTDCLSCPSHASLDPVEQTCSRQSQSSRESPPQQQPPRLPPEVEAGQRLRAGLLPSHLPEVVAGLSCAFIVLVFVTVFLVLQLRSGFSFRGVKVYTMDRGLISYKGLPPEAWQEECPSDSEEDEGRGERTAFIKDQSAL
# Description: FIG. 9. PolyR inhibits HPV16 L2 protein cleavage by furin and induces accumulation of internalized virus particles in late endosomal fraction. (A) Equal amount of HPV16 diluted in 50 μl furin assay buffer (1 mM CaCl2), 100 mM HEPES, 0.5% Triton X-100, 1 mM β-mercaptoethanol) was loaded into six tubes, […], in the presence of 1.3 μM furin inhibitor1 (Merck Millipore Corp., Burlington, Mass.), or 1 μM polyR. Samples were mixed with SDS-PAGE sample buffer and boiled before fractionation on 9% gel. Proteins were transferred onto PVDF membranes and after blocking, incubated with affinity-purified rabbit anti-HPV16 polyclonal antibody. Secondary donkey anti-rabbit horseradish peroxidase-coupled antibody was used for detection of HPV16 capsid proteins. (B) HaCaT cells grown on coverslips were incubated with HPV16 PsVs for one hour at 37° C. to initiate virus binding (and partial internalization) before adding 1 μM polyR and further incubated for seven hours. […]
# Cleavage of the L2 minor capsid protein by the cellular pro-protein convertase, furin, is an essential step in infectious entry of HPVs. […] After two hours of incubation, HPV16 cleavage was assessed by immunoblotting using anti-HPV 16 polyclonal antibody. […]
# [2] = tested on: HPV16 pseudovirions (PsVs); assay: HPV16 PsV luciferase infectivity assay, HaCaT cells pretreated with peptide; assay type: cell-based; conditions: 24 h; for inhibition of HPV16 PsV infection: 6 μM, 30 min pretreatment of HaCaT cells, 300 vge/cell
# Description: HaCaT cells were cultured in complete growing medium (CM; Dulbecco's modified Eagle's medium nutrient mixture F-12 HAM (Sigma-Aldrich, St. Louis, Mo.)) supplemented with 10% fetal bovine serum (FBS), amino acids (Sigma-Aldrich, St. Louis, Mo.), 2 mM L-glutamine, 100 U/ml penicillin and 1 μg/ml streptomycin (Sigma-Aldrich, St. Louis, Mo.), as previously described (Patterson et al., 2005. J Virol 79:6838-6847). Semi-confluent cells were pretreated for 30 minutes with arginine-rich peptides dissolved in CM (6 μM gp91dstat, gp91dstat (scramble), R9, and TAT, or 3 polyR) before the exposure to HaCaT cells and 300 vge/cell HPV16 pseudovirions (PsVs) packaging a luciferase reporter plasmid. Infectivity was scored after 24 hours of incubation at 37° C. (i.e., post infection) by Lumat LB9501 (Berthold Technologies GmbH & Co KG, Bad Wildbad, Germany) equipment, using the luciferase assay kit (Promega, Madison, Wis.) according to manufacturer's specification. Raw data were normalized to total cellular protein concentration. Graph summarizes triplicate treatments; error bars represent SEM.
# Fifty percent inhibitory concentration (IC50) of HPV16 PsV infection of HaCaT cells by the compounds. For generation of an inhibitory concentration 50 (IC50) curves, cells were pretreated with the indicated concentration of arginine-rich peptides prior to HPV16 PsV exposure. Infectivity was scored after 24 hours of incubation at 37° C. and the data from two independent duplicate experiments were pooled and analyzed using non-linear regression (curve fit) function of PRISM software (GraphPad Software, Inc., LaJolla, Calif.).
# Semi-confluent HaCaT cells maintained in CM, were pretreated for one hour with PrS dissolved in CM at the 0-5.8 μM concentrations before exposure to HPV16 PsVs (350 vge/cell). Infectivity was scored after 24 hours of incubation at 37° C. using a luminometer (Lumat LB9501, Berthold GmbH & Co., Bad Wildbad, Germany) and luciferase assay (Promega, Madison, Wis.) according to manufacturer's specification. Raw data were normalized to total cellular protein concentration.
# For generation of an inhibitory concentration 50 (IC50) curve for PrS inhibition, data from two independent duplicate experiments was pooled and analyzed using the non-linear regression (curve fit) function of PRISM (GraphPad Software, Inc., La Jolla, Calif.).
# 3 μM PrS incubated for one hour at room temperature with 2 mg/ml high or low molecular weight HA in CM, prior to the addition to HaCaT cells. 350 vge/cell HPV16 PsVs were used for infection of cells in the presence or absence of PrS or HA:PrS complex. Infection was scored after 24 hours as described in FIG. 12.
# HaCaT cells were pretreated with 6 μM concentrations of gp91dstat, gp91dstat (scramble), R9, or TAT, or 3 μM polyR. After 30 minutes of incubation at 37° C., cells were infected with HPV16 pseudovirions (PsVs) at a dose of 300 viral genome equivalents (vge)/cell, and the relative infectivity was quantified after 24 hours compared to infection in untreated cells (FIG. 1). Each treatment was performed in triplicate.
# To evaluate the anti-HPV activity of PrS, HaCaT cells, a keratinocyte-derived cell line, was used as a model for analysis of HPV infection. […]
# Infections were initiated using Luciferase-expressing HPV16 PsVs that were produced, isolated, and quantified as described previously (Surviladze et al., 2012. PLoS Pathogens 8: e1002519; Campos S K and Ozbun M A, 2009. PloS One 4:e4463). […]
# [3] = tested on: HPV16 PsVs; assay: Dissociation of cell-bound HPV16 PsVs from HaCaT cells (L1 immunoblot); assay type: cell-based; conditions: 5 μM added to HPV-bound HaCaT cells, 1 h 4° C.
# Description: (§1) (A) HPV16 PsVs were bound to HaCaT cells (one hour at 4° C.), before the addition of […]. After a one-hour incubation at 4° C., unbound virus was washed out, cells were lysed and analyzed for the content of HPV L1 protein. (B) HaCaT cells were exposed to HPV 16 PsV at 4° C. in the absence of polyR, simultaneously with polyR (0 h), or one hour after polyR treatment (+1 h). After extensive washing with PBS, cells were lysed and analyzed for the content of HPV16 L1 protein.
# FIG. 19. […] HPV16 PsVs were bound to HaCaT cells (one hour in cold), before the addition of 5 μM PrS. After a one-hour incubation at 4° C., unbound virus was washed out, cells were lysed, and HPV L1 protein content was measured as described in FIG. 16.
# To determine whether polyR could cause HPV16 dissociation from cells, HPV16 PsVs were bound to HaCaT cells for one hour at 4° C. After washing away unbound virus, HPV-bound cells were incubated with 3 μM polyR for one hour at 4° C.; control cells were untreated. Cells were lysed and analyzed for HPV L1 protein content. […]
# The post-attachment inhibitory effects of PrS could be due the displacement of capsids from the cell surface. […] After a one-hour incubation at 4° C., unbound virus was washed out, cells were lysed, and the HPV L1 protein content was analyzed.
# [4] = tested on: HPV16 PsVs; assay: HPV16 PsV binding to HaCaT cells at 4° C. (L1 immunoblot / immunofluorescence); assay type: cell-based; conditions: 4° C. 1 h
# Description: FIG. 4. PolyR treatment of host cells inhibits HPV16 binding to cells. (A) Confluent HaCaT cell monolayers were treated with 1 μM polyR (in CM) for 30 minutes, before adding 100 vge/cell HPV16 PsVs, and incubated at 4° C. for one hour (to promote binding but prevent virus internalization). After washing out of unbound virus, cells were lysed (25 mM Tris pH7.5, 150 mM NaCl, 1% Triton-X100 supplemented with protease inhibitors) and centrifuged at 16,000×g for 10 minutes. Protein concentrations in supernatant were measured using the Bradford method (Bio-Rad Laboratories, Inc., Hercules, Calif.). Samples were boiled in SDS-containing sample buffer, and aliquots containing equal amount of protein ([…] to 200 μg) separated by SDS-polyacrylamide gel electrophoresis (SDS-PAGE), using 10% gel. Proteins were transferred onto polyvinylidene difluoride (PVDF) membranes and subjected to analysis using anti-HPV16 L1 primary antibody (Camvir-1, sc-47699, Santa Cruz Biotechnology, Inc., Dallas, Tex.;1:5000 dilution) for detection of HPV16 major capsid protein, L1. Proteins were visualized by enhanced chemiluminescence (SUPERSIGNAL West Pico Chemiluminescent Substrate, Thermo Fisher Scientific, Inc., Waltham, Mass.) and exposed to film (Phenix Research Products, Candler, N.C.). (B) Immunofluorescence assays were performed essentially as described previously (Surviladze et al., 2012. PLoS Pathogens 8:e1002519). HaCaT cells were grown on coverslips at approximately 50% confluence and treated with 3 μM polyR for 30 minutes at 37° C. before the addition of 1000 vge of HPV16 PsVs per coverslip. Cells were incubated for one hour at 4° C. and washed several times with PBS, before the fixation with 4% paraformaldehyde (PFA). BSA-blocked cells were incubated with rabbit polyclonal HPV16 antibody (antibody was affinity-purified from rabbit anti-HPV VLP antisera). PBS-washed slides were incubated with donkey AF488-conjugated anti-rabbit IgG secondary antibody; phalloidin-rhodamine (Cytoskeleton, Inc., Denver, Colo.) was used for actin staining. After extensive washing with PBS, cells were mounted in Gold Antifade and immunofluorescent (IF) images were captured by confocal photo-microscopy.
# as §1
# FIG. 16. PrS pretreated cells binding of HPV16. Confluent HaCaT cell monolayers were treated with 1 μM PrS (in CM) before the addition of 200 vge/cell HPV16 PsVs and incubated at 4° C. for one hour (conditions to prevent virus internalization). After washing out of unbound virus, cells were lysed (25 mM Tris pH7.5, 150 mM NaCl, 1% Triton-X100 supplemented with protease inhibitors) and centrifuged at 16,000×g for 10 minutes. Protein concentrations in supernatant were measured using the Bradford method (Bio-Rad Laboratories, Inc., Hercules, Calif.). Samples were boiled in SDS-containing sample buffer, and aliquots containing equal amount of protein (˜50 μg to 200 μg) separated by SDS-polyacrylamide gel electrophoresis (SDS-PAGE) using 10% gel. […]
# [5] = tested on: HPV16 PsVs; assay: Direct pre-incubation of HPV16 PsVs with peptide, dilution below IC50, then infection of HaCaT cells; assay type: cell-based; conditions: 1 μM, 1 h 37° C., diluted below IC50, HaCaT cells 24 h
# Description: FIG. 3. […] HPV16 PsVs were incubated with 0.3 μM polyR for one hour at 37° C. The virus-polyR mixture was diluted with CM to reduce the polyR concentration below the IC50 value prior to incubation with HaCaT cells for 24 hours (HPV16-polyR). The control included untreated HPV16 PsVs (HPV16) added to HaCaT cells. Infection was measured after 24-hour incubation.
# FIG. 15. Direct interaction of PrS to HPV16 PsVs. HPV16 PsVs were incubated with 1 μM PrS or HA:PrS complex for one hour at 37° C. Virus-PrS/or HA:PrS mixture was diluted with CM in order to reduce the PrS concentration below the IC50 value, and incubated with HaCaT cells for 24 hours. The control included untreated HPV16 PsVs. Infection was measured after 24 hours incubation as described in FIG. 12.
# Typically, direct interaction of cationic inhibitors with the viral capsids of non-enveloped viruses (including HPV) is sufficient for antiviral activity. To determine whether polyR inhibited HPV16 infectivity by direct interaction with viral capsids, HPV16 PsVs were incubated with […] for one hour at 37° C. The virus-polyR mixture was diluted 1500-fold to reduce the polyR concentration below the IC50 value, then incubated with HaCaT cells. The control included cells exposed to HPV PsVs that were not treated with polyR. […]
compound,measurement,setting,value
"CCCCCCCCCC(=O)N[C@@H](CCCN=C(N)N)C(=O)N[C@H](C(=O)N[C@@H](CCCCN)C(=O)N[C@@H](CCCN=C(N)N)C(=O)CCl)C(C)C [FI, reference compound] (Decanoyl-RVKR-CH2Cl)",furin cleavage of L2 capsid protein,[1],inhibited cleavage of the L2 capsid protein
"N=C(N)NCCC[C@H](NC(=O)[C@H](CCCNC(=N)N)NC(=O)[C@H](CCCNC(=N)N)NC(=O)[C@H](CCCNC(=N)N)NC(=O)[C@H](CCCNC(=N)N)NC(=O)[C@H](CCCNC(=N)N)NC(=O)[C@H](CCCNC(=N)N)NC(=O)[C@H](CCCNC(=N)N)NC(=O)[C@@H](N)CCCNC(=N)N)C(=O)O [R9, arginine nonapeptide]",inhibition of HPV16 PsV infection,[2],66%
TAT: YGRKKRRQRRR; arginine-rich fragment of the HIV transactivator protein,inhibition of HPV16 PsV infection,[2],44%
"protamine sulfate (MPRRRRSSSRPVRRRRRPRVSRRRRRRGGRRRR; also: sulfate salt; listed as Oncorhynchus keta) [PrS, sulfate form of salmon protamine, FDA approved arginine-rich polypeptide, reference compound]",release of HPV16 from membrane,[3],did not induce HPV16 release from membrane
same,IC50,"[2]; 1 h pretreatment, 350 vge/cell, read-out: IC50 of HPV16 infection in HaCaT cells",~100 nM
same,HPV16 binding to pretreated cells (L1 Western blot),"[4]; 1 μM in CM, 200 vge/cell",almost completely blocked HPV16 binding
same,inhibition of HPV16 binding at acidic conditions,"[4]; pH 4.5, 2 μM PrS (complex: 0.1% HMW HA:2 μM PrS)",60%
same,effect of pre-incubation of HPV16 PsVs on infection,[5],does not inhibit infection
